Experiments:
[1] = tested on: normal NK cells expanded with K562-aAPC; assay: percent inhibition of viability; higher = more inhibition; settings: 72 h, IL-2 2.5 ng/mL
Description: (§1)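 Drug sensitivity and resistance testing on K562-aAPC-expanded normal NK cells: 5 concentrations (10-fold steps over a 10,000-fold range), 72 h at 37 °C, viability by CellTiter-Glo normalised to DMSO and benzethonium chloride controls; DSS from the fitted curve.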

[2] = tested on: normal primary NK cells, pool 1 (3 donors), resting (IL-2 0 ng/mL); assay: drug sensitivity score (DSS) (DSS units); higher = more sensitive; extreme values may be limits of the assay; settings: 72 h
[3] = tested on: DERL-7 (IL-2 2.5 ng/mL); assay: as above; settings: 72 h
[4] = tested on: normal primary NK cells, pool 3 (3 donors) (IL-2 2.5 ng/mL); assay: as above; settings: 72 h
[5] = tested on: KAI3 (IL-2 2.5 ng/mL); assay: as above; settings: 72 h
[6] = tested on: YT (IL-2 2.5 ng/mL); assay: as above; settings: 72 h
[7] = tested on: KHYG-1 (IL-2 2.5 ng/mL); assay: as above; settings: 72 h
[8] = tested on: NK-92 (IL-2 2.5 ng/mL); assay: as above; settings: 72 h
[9] = tested on: SNK-6 (IL-2 2.5 ng/mL); assay: as above; settings: 72 h
[10] = tested on: normal primary NK cells, pool 2 (3 donors) (IL-2 2.5 ng/mL); assay: as above; settings: 72 h
[11] = tested on: NKL (IL-2 2.5 ng/mL); assay: as above; settings: 72 h
[12] = tested on: NK-YS (IL-2 2.5 ng/mL); assay: as above; settings: 72 h
[13] = tested on: IMC-1 (IL-2 20 ng/mL); assay: as above; settings: 72 h
[14] = tested on: normal primary NK cells, pool 1 (3 donors) (IL-2 2.5 ng/mL); assay: as above; settings: 72 h
[15] = tested on: normal primary NK cells, pool 1 (3 donors), resting (IL-2 0 ng/mL); assay: percent inhibition of viability; higher = more inhibition; settings: 72 h
[16] = tested on: DERL-7 (IL-2 2.5 ng/mL); assay: as above; settings: 72 h
[17] = tested on: normal primary NK cells, pool 3 (3 donors) (IL-2 2.5 ng/mL); assay: as above; settings: 72 h
[18] = tested on: KAI3 (IL-2 2.5 ng/mL); assay: as above; settings: 72 h
[19] = tested on: YT (IL-2 2.5 ng/mL); assay: as above; settings: 72 h
[20] = tested on: KHYG-1 (IL-2 2.5 ng/mL); assay: as above; settings: 72 h
[21] = tested on: NK-92 (IL-2 2.5 ng/mL); assay: as above; settings: 72 h
[22] = tested on: SNK-6 (IL-2 2.5 ng/mL); assay: as above; settings: 72 h
[23] = tested on: normal primary NK cells, pool 2 (3 donors) (IL-2 2.5 ng/mL); assay: as above; settings: 72 h
[24] = tested on: NKL (IL-2 2.5 ng/mL); assay: as above; settings: 72 h
[25] = tested on: NK-YS (IL-2 2.5 ng/mL); assay: as above; settings: 72 h
[26] = tested on: IMC-1 (IL-2 20 ng/mL); assay: as above; settings: 72 h
[27] = tested on: normal primary NK cells, pool 1 (3 donors) (IL-2 2.5 ng/mL); assay: as above; settings: 72 h
[28] = tested on: normal NK cells expanded with K562-aAPC; assay: drug sensitivity score (DSS) (DSS units); higher = more sensitive; extreme values may be limits of the assay; settings: 72 h; IL-2 2.5 ng/mL
Description: as §1

Cc1ccc(C(=O)Nc2ccc(CN3CCN(C)CC3)c(C(F)(F)F)c2)cc1C#Cc1cnc2cccnn12 [Ponatinib] (max concentration tested 1000 nM)
percent inhibition of viability [%]
Settings	0.1 nM	1 nM	10 nM	100 nM	1000 nM
[1]	-4.16	-2.02	24.4	-11.2	70.4
[15]	1.74	25.3	15.3	19.4	60
[16]	6.88	2.27	-1.37	18.4	74.2
[17]	-2.51	2.42	9.55	-20	65
[18]	-7.8	-3.54	0.07	10.6	83.4
[19]	-6.26	-2.49	1.52	27	68.5
[20]	-7.12	-3.44	-4.86	3.85	65.1
[21]	-13.8	-10.1	-23.1	-19.9	55
[22]	11.2	4.03	-7.68	-18.6	-2.96
[23]	2.87	-1.56	1.5	-2.42	75
[24]	-13.5	-11.6	1.83	36.3	70.1
[25]	-8.44	-4.74	-4.88	8.88	33.5
[26]	-6.8	-0.24	-8.73	-1.9	-20.2
[27]	2.63	6.68	12.1	7.51	81.5

Settings	drug sensitivity score
[2]	8.02
[3]	6.96
[4]	2.66
[5]	6.4
[6]	7.33
[7]	4.12
[8]	2.11
[9]	0
[10]	3.94
[11]	8.25
[12]	2.89
[13]	0
[14]	5.73
[28]	3.2

Cn1c(Nc2ccc(C(F)(F)F)cc2)nc2cc(Oc3ccnc(-c4ncc(C(F)(F)F)[nH]4)c3)ccc21 [RAF265] (max concentration tested 1000 nM)
percent inhibition of viability [%]
Settings	0.1 nM	1 nM	10 nM	100 nM	1000 nM
[1]	-1.93	-2.9	-2.68	12.1	30.9
[15]	-7.48	14.2	11.3	45.5	69.8
[16]	-3.61	1.74	-1.22	22.4	46.9
[17]	-13	11.3	6.16	-1.81	8.78
[18]	-0.58	3.63	9.74	26.2	47.5
[19]	-4.07	-2.24	1.77	6.57	15.5
[20]	-7.83	-6.28	-1.05	11.5	34.9
[21]	-17.8	-16.1	-9.27	11.7	59.3
[22]	6.03	2.76	3.1	-14.9	44.9
[23]	-11	7.1	-0.02	-1.76	19.7
[24]	2.6	2.04	1.53	9.44	31.3
[25]	-5.8	-6.28	-1.83	4.39	18.3
[26]	-5.99	-2.17	-3.34	-3.31	12
[27]	-7.64	17.4	8.25	15.4	23

Settings	drug sensitivity score
[2]	10.2
[3]	5.33
[4]	0
[5]	5.82
[6]	0.52
[7]	3.28
[8]	5.13
[9]	1.66
[10]	0.47
[11]	2.71
[12]	0.99
[13]	0.01
[14]	2.83
[28]	2.97
